The record followed here is US5965743A, “N-substituted imidazol derivative” (Nippon Soda Co., Ltd., priority 1994, dated 1999).

Experiment [1] has as its system biosynthesis of cholesterol. Nature of the experiment: Inhibitory effect on biosynthesis of cholesterol in cell-free biosystem. In kind it is biochemical, rat (SD-strain). The following applies: cell-free rat liver enzyme system, 90 min, 37° C., pH 7.4; read-out: 50% Inhibitory Concentration (IC50), cholesterol biosynthesis. As for the experimental part:
Inhibitory Effect on Biosynthesis of Cholesterol in Cell-free Biosystem
(1) Preparation of Enzyme Reaction System
The preparation of the enzymatic system for the biosynthesis of cholesterol in rats was carried out according to the method described in Biochimica et Biophysica Acta, Vol.486, pp 70-81, 1977.
More particularly, SD-strain female rats weighing from […] were fed for 7 to 10 days with a diet containing 2% cholestyramine to enhance their biosynthetic activity of cholesterol. After killed the rats by means of depletion of blood in midnight, the livers thereof were removed and homogenized with a double volume of 0.1 M potassium phosphate buffer solution (pH 7.4) containing 15 mM nicotine amide and 2 mM magnesium chloride by using a loose fitting-type teflon homogenizer. The supernatant obtained by centrifuging the homogenate at 12,000×g for 30 min. was further centrifuged at 105,000×g for 90 min., thereby separating it to the microsome fraction and the supernatant fraction. The supernatant obtained were kept as the fraction resulting in the precipitation in 40-80% ammonium sulfate (hereinafter referred to as "soluble fraction"). Each of the soluble fraction and the microsome fraction were independently adjusted with 0.1 M potassium phosphate buffer solution (pH 7.4) to the volumes of 1 ml/g of liver and 1 ml/3 g of liver, respectively, and were kept and used in the subsequent tests as an enzyme solution for the mixing ratio of 16:1.
(2) Method for Measuring Cholesterol Biosynthesis Activity
Cholesterol biosynthesis activity was measured according to the method described in Biochimica Biophysica Acta, Vol.486, pp 70-81, 1977. 2 μl dimethylsulfoxide solution of the test compound were added to a solution composed of 50 μl of the enzyme solution prepared in (1) described above, 0.1 M potassium phosphate buffer solution (pH 7.4), 1 mM ATP, 5 mM glucose-1-phosphate, 6 mM glutathione, 6 mM magnesium chloride, 0.04 mM coenzyme A, 0.25 mM NAD, 0.25 mM NADP and 1 mM 2-^14 C-sodium acetate (111 MBq./mmol), and the resultant solution was adjusted to the whole volume of 0.2 ml and then allowed to a reaction for 90 min. at 37° C. while shaking. The reaction was then stopped by adding 1 ml of 15% ethanol solution of potassium hydroxide, and the solution was then heated for 1 hour at 75° C. After extracted unsaponificated products with hexane from the solution, the solution was then condensed and dried to the hard state and subsequently dissolved in small volume of a mixture of chloroform and methanol (mixing ratio; 1:2). The resultant chloroform-methanol solution was spotted on a pre-coated silica gel TLC plate, then developed with a developer composed of benzene and ethyl acetate (mixing ratio; 9:1). The cholesterol spot was then taken out from the plate, and the radient activity of the spot was measured by using a liquid scintillation counter. Based on the radio-activity measured, mthe 50% inhibitory concentration (IC50) of the compounds of the present invention were determined.

For experiment [2], the system named is Triton WR-1339-Induced Hyperlipemia Mice. Nature of the experiment: Effect on serum lipid in Triton WR-1339-induced hyperlipemia mice. It is filed as in vivo, mouse (Crj:ICR-strain). The following applies: Mus musculus, po (3 x 33.3 mg/kg), average of 10 animals, 24 hours. How it is done: For this test, Crj:ICR-strain male mice aged 7-9 weeks were provided. […] After 24 hours, blood sampling was performed for each mouse from the abdominal aorta under anesthesia with ether, and the collected blood were placed into plastic test tubes being placed with a blood separating agent beforehand, then after 30 min. or 1 hour, the blood sampled was centrifuged at 10,000 rpm to obtain the serum. Total cholesterol value, HDL cholesterol value and total triglyceride value in the serum were respectively measured by using the measuring kits and automatic biochemical analyser.

Where [3] appears, read: read-out: % Change of Serum Lipid to Control Group: HDL Cholesterole.
The mark [4] stands for this setting: read-out: % Change of Serum Lipid to Control Group: Total Cholesterole.
The mark [5] stands for this setting: read-out: % Change of Serum Lipid to Control Group: Total glyceride.

Read-outs that look alike come from different tables or passages of the source.

`Cc1cc(OC(=O)N2CCCCC2)c(C(C)C)cc1[N+](C)(C)C` [AMO 1618, reference compound]: the IC50 in experiment [1] came out at 140 µM. On to `c1ccc(CCCCNc2ccc(-n3ccnc3)cc2)cc1` [Compound 1-20], for which the IC50 in experiment [1] worked out at 0.7 µM. As for `c1ccc(CCCCCCNc2ccc(-n3ccnc3)cc2)cc1` [Compound 1-24], the IC50 in experiment [1] was 2.6 µM. Turning to `CN(CCCc1ccccc1)c1ccc(-n2ccnc2)cc1` [Compound 1-27], the change in vivo at 100 mg/kg in experiment [2] (setting [3]) is 65%; in experiment [2] (setting [4]) it was -14%; in experiment [2] (setting [5]) it was -22%. Moreover, the IC50 in experiment [1] turned out to be 1.8 µM. Regarding `c1ccc(OCCCNc2ccc(-n3ccnc3)cc2)cc1` [Compound 1-33], the IC50 in experiment [1] turned out to be 6.2 µM. Turning to `c1ccc(OCCCCNc2ccc(-n3ccnc3)cc2)cc1` [Compound 1-35], in experiment [1], the IC50 came to 2.2 µM. In the case of `c1ccc(CCCOc2ccc(-n3ccnc3)cc2)cc1` [Compound 1-47], the values for the change in vivo at 100 mg/kg in experiment [2] (setting [3]), in experiment [2] (setting [4]) and in experiment [2] (setting [5]) were 46%, -16% and -23%, respectively. In addition, the IC50 in experiment [1] is 7 µM. On to `CC(CCOc1ccc(-n2ccnc2)cc1)c1ccccc1` (stereo not shown) [Compound 1-48], for which, in experiment [1], the IC50 was determined as 1.4 µM.

Regarding `c1ccc(CCCCOc2ccc(-n3ccnc3)cc2)cc1` [Compound 1-49, 1-[4-(4-phenylbutoxy)phenyl]imidazole], in experiment [1], the IC50 stood at 0.68 µM. For `c1ccc(CCCCCCOc2ccc(-n3ccnc3)cc2)cc1` [Compound 1-53], the IC50 in experiment [1] was found to be 1.7 µM. Turning to `c1ccc(OCCCOc2ccc(-n3ccnc3)cc2)cc1` [Compound 1-60], the change in vivo at 100 mg/kg in experiment [2] (setting [3]) is 52%; in experiment [2] (setting [4]), -22%; in experiment [2] (setting [5]), -37%. Further, the IC50 in experiment [1] was found to be 4.8 µM. In the case of `c1ccc(OCCCCOc2ccc(-n3ccnc3)cc2)cc1` [Compound 1-61], in experiment [1], the IC50 is 4 µM. Turning to `CCCCCCCCCCNc1ccc(-n2ccnc2)cc1` [Compound 1-115], the change in vivo at 100 mg/kg in experiment [2] (setting [3]) was 22%; in experiment [2] (setting [4]), -17%; in experiment [2] (setting [5]) it was -25%. Besides, the IC50 in experiment [1] is 10 µM. Take `CCCCCCCCCCOc1ccc(-n2ccnc2)cc1` [Compound 1-119]: in experiment [1], the IC50 amounted to 9 µM. For the molecule `c1ccc(CCCCOc2ccc(Cn3ccnc3)cc2)cc1` [Compound 2-49, 1-[4-(4-phenylbutyloxy)benzyl]imidazole], the results for the change in vivo at 100 mg/kg in experiment [2] (setting [3]), in experiment [2] (setting [4]) and in experiment [2] (setting [5]) were 20%, -16% and -10%, respectively. In addition, the IC50 in experiment [1] was 1.2 µM. Take `c1ccc(OCCOc2ccc(Cn3ccnc3)cc2)cc1` [Compound 2-59, 1-[4-(2-phenoxyethyloxy)benzyl]imidazole]: in experiment [1], the IC50 worked out at 21 µM. On to `c1ccc(OCCCOc2ccc(Cn3ccnc3)cc2)cc1` [Compound 2-60], for which the IC50 in experiment [1] is 10 µM. Same read-out and setting: the figure for `O=S(=O)(CCCOc1ccc(Cn2ccnc2)cc1)c1ccccc1` [Compound 2-68, 1-[4-(3-benzenesulfonylpropyloxy)benzyl]imidazole] is less than 1 µM. Regarding `Cc1ccc(OCCCOc2ccc(Cn3ccnc3)cc2)cc1` [Compound 2-95, 1-{4-[3-(4-tolyloxy)propyloxy]benzyl} imidazole], the IC50 in experiment [1] is 2.4 µM. As to `CC[C@H](C)C(=O)O[C@H]1C[C@H](O)C=C2C=C[C@H](C)[C@H](CC[C@@H](O)C[C@@H](O)CC(=O)O)[C@H]21` [Pravastatin, reference compound], the figures for the change in vivo at 100 mg/kg in experiment [2] (setting [3]), in experiment [2] (setting [4]) and in experiment [2] (setting [5]) were -8%, -16% and -28%, respectively.
